What follows are molecules tested on breast cancer (BT-474) (assay: Anticancer activity assay (WST-8 cell growth), BT-474). Conditions: Homo sapiens, BT-474, 96 h, read-out: IC50 (nM) BT-474.
Format: cell-based
Experimental: The compounds of the present invention were assayed for inhibitory activity against 7 cancer cell lines as breast cancer (BT-474), human epithelial cancer (A-431), non-small cell lung cancer (NCI-H460), colon cancer (HT-29), colon cancer (SW-620), breast cancer (MDA-MB-231) and breast cancer (MCF-7).
Briefly, a suspension of each cancer cell line was serially diluted, and plated at a density of 2˜3×10^3 cells/well into 96-well microplates, followed by incubation at 37° C. for 4 day in a 5% CO2 atmosphere. Cell growth in a monolayer was measured using WST-8 reagemt (Dojindo, Japan).
IC50 values of the compounds against the cancer cell lines were calculated as compound concentrations at which the cells were grown by 50% OD of the control.

| Compound | IC50 |
| --- | --- |
| CC[C@H](C)[C@@H]([C@@H](CC(=O)N1C[C@H](OC)C[C@@H]1[C@H](OC)[C@@H](C)C(=O)N[C@H](C)C(=NO)c1ccc(F)cc1)OC)N(C)C(=O)[C@@H](NC(=O)[C@H](C(C)C)N(C)C)C(C)C [Compound I-21, (S)-2-((S)-2-(dimethylamino)-3-methylbutaneamido)-N-((3R,4S,5S)-1-((2R,4R)-2-((1R,2R)-3-(((R)-1-(4-fluorophenyl)-1-(hydroxyimino)propan-2-yl)amino)-1-methoxy-2-methyl-3-oxopropyl)-4-methoxypyrrolidin-1-yl)-3-methoxy-5-methyl-1-oxoheptan-4-yl)-N,3-dimethylbutanamide] | 0.59 nM |
| CC[C@H](C)[C@@H]([C@@H](CC(=O)N1C[C@H](OC)C[C@@H]1[C@H](OC)[C@@H](C)C(=O)NCC(=NO)c1cc(Br)ccc1C)OC)N(C)C(=O)[C@@H](NC(=O)[C@H](C(C)C)N(C)C)C(C)C [Compound I-22, (S)—N-((3R,4S,5S)-1-((2R,4R)-2-((1R,2R)-3-((2-(5-bromo-2-methylphenyl)-2-(hydroxyimino)ethyl)amino)-1-methoxy-2-methyl-3-oxopropyl)-4-methoxypyrrolidin-1-yl)-3-methoxy-5-methyl-1-oxoheptan-4-yl)-2-((S)-2-(dimethylamino)-3-methylbutaneamido)-N,3-dimethylbutanamide] | 0.91 nM |
| CC[C@H](C)[C@@H]([C@@H](CC(=O)N1C[C@H](OC)C[C@H]1[C@H](OC)[C@@H](C)C(=O)NC/C(=N/O)c1ccc(OC)cc1F)OC)N(C)C(=O)[C@@H](NC(=O)[C@@H](NC)C(C)C)C(C)C [Compound I-25] | 0.41 nM |
| CC[C@H](C)[C@@H]([C@@H](CC(=O)N1C[C@H](OC)CC1[C@H](OC)[C@@H](C)C(=O)NCC(=O)c1ccc(F)cc1C)OC)N(C)C(=O)[C@@H](NC(=O)[C@H](C(C)C)N(C)C)C(C)C (stereo partly drawn) [Compound I-26] | 0.79 nM |
| CC[C@H](C)[C@@H]([C@@H](CC(=O)N1C[C@H](OC)CC1[C@H](OC)[C@@H](C)C(=O)NCC(=O)c1ccc(F)cc1C)OC)N(C)C(=O)[C@@H](NC(=O)[C@@H](NC)C(C)C)C(C)C (stereo partly drawn) [Compound I-27] | 0.5 nM |
| CC[C@H](C)[C@@H]([C@@H](CC(=O)N1C[C@H](OC)C[C@H]1[C@H](OC)[C@@H](C)C(=O)NCC(=O)c1ccccc1C)OC)N(C)C(=O)[C@@H](NC(=O)[C@@H](NC)C(C)C)C(C)C [Compound I-28, (S)—N-((3R,4S,5S)-3-methoxy-1-((2S,4R)-4-methoxy-2-((1R,2R)-1-methoxy-2-methyl-3-oxo-3-((2-oxo-2-(o-tolyl)ethyl)amino)propyl)pyrrolidin-1-yl)-5-methyl-1-oxoheptan-4-yl)-N,3-dimethyl-2-((S)-3-methyl-2-(methylamino)butaneamido)butanamide] | 0.65 nM |
| CC[C@H](C)[C@@H]([C@@H](CC(=O)N1C[C@H](OC)C[C@H]1[C@H](OC)[C@@H](C)C(=O)NCC(=O)c1ccc(C)cc1)OC)N(C)C(=O)[C@@H](NC(=O)[C@@H](NC)C(C)C)C(C)C [Compound I-29, (S)—N-((3R,4S,5S)-3-methoxy-1-((2S,4R)-4-methoxy-2-((1R,2R)-1-methoxy-2-methyl-3-oxo-3-((2-oxo-2-(p-tolyl)ethyl)amino)propyl)pyrrolidin-1-yl)-5-methyl-1-oxoheptan-4-yl)-N,3-dimethyl-2-((S)-3-methyl-2-(methylamino)butaneamido)butanamide] | 0.61 nM |
| CC[C@H](C)[C@@H]([C@@H](CC(=O)N1C[C@H](OC)C[C@H]1[C@H](OC)[C@@H](C)C(=O)NCC(=O)c1ccc(F)cc1)OC)N(C)C(=O)[C@@H](NC(=O)[C@@H](NC)C(C)C)C(C)C [Compound I-30] | 0.77 nM |
| CC[C@H](C)[C@@H]([C@@H](CC(=O)N1C[C@H](OC)C[C@H]1[C@H](OC)[C@@H](C)C(=O)NCC(=O)c1ccc(OC)cc1F)OC)N(C)C(=O)[C@@H](NC(=O)[C@@H](NC)C(C)C)C(C)C [Compound I-31] | 0.54 nM |
| CC[C@H](C)[C@@H]([C@@H](CC(=O)N1CSC[C@@H]1[C@H](OC)[C@@H](C)C(=O)NCCc1c(F)cccc1F)OC)N(C)C(=O)[C@@H](NC(=O)[C@@H](NC)C(C)C)C(C)C [Compound I-32, (S)—N-((3R,4S,5S)-1-((S)-4-((1R,2R)-3-((2,6-difluorophenethyl)amino)-1-methoxy-2-methyl-3-oxopropyl)thiazolidin-3-yl)-3-methoxy-5-methyl-1-oxoheptan-4-yl)-N,3-dimethyl-2-((S)-3-methyl-2-(methylamino)butaneamido)butanamide] | 0.64 nM |
| CC[C@H](C)[C@@H]([C@@H](CC(=O)N1C[C@H](OC)C[C@H]1[C@H](OC)[C@@H](C)C(=O)NCCc1ccccn1)OC)N(C)C(=O)[C@@H](NC(=O)[C@@H](NC)C(C)C)C(C)C [Compound I-38, (2S)—N-((3R,4S)-3-methoxy-1-((2S,4R)-4-methoxy-2-((1R,2R)-1-methoxy-2-methyl-3-oxo-3-((2-(pyridin-2-yl)ethyl)amino)propyl)pyrrolidin-1-yl)-5-methyl-1-oxoheptan-4-yl)-N,3-dimethyl-2-((S)-3-methyl-2-(methylamino)butaneamido)butanamide] | 1.32 nM |
| CC[C@H](C)[C@@H]([C@@H](CC(=O)N1C[C@H](OC)C[C@H]1[C@H](OC)[C@@H](C)C(=O)NCCc1cccs1)OC)N(C)C(=O)[C@@H](NC(=O)[C@@H](NC)C(C)C)C(C)C [Compound I-39, (2S)—N-((3R,4S)-3-methoxy-1-((2S,4R)-4-methoxy-2-((1R,2R)-1-methoxy-2-methyl-3-oxo-3-((2-(thiophen-2-yl)ethyl)amino)propyl)pyrrolidin-1-yl)-5-methyl-1-oxoheptan-4-yl)-N,3-dimethyl-2-((S)-3-methyl-2-(methylamino)butaneamido)butanamide] | 0.67 nM |
| CC[C@H](C)[C@@H]([C@@H](CC(=O)N1C[C@@H](O)C[C@H]1[C@H](OC)[C@@H](C)C(=O)NCCc1c(F)cccc1F)OC)N(C)C(=O)[C@@H](NC(=O)[C@H](C(C)C)N(C)C)C(C)C [Compound I-40] | 0.23 nM |
| CC[C@H](C)[C@@H]([C@@H](CC(=O)N1C[C@@H](O)C[C@H]1[C@H](OC)[C@@H](C)C(=O)N[C@@H](C)C(=O)c1ccc(F)cc1)OC)N(C)C(=O)[C@@H](NC(=O)[C@H](C(C)C)N(C)C)C(C)C [Compound I-41, (2S)-2-((S)-2-(dimethylamino)-3-methylbutaneamido)-N-((3R,4S)-1-((2S,4S)-2-((1R,2R)-3-(((S)-1-(4-fluorophenyl)-1-oxopropan-2-yl)amino)-1-methoxy-2-methyl-3-oxopropyl)-4-hydroxypyrrolidin-1-yl)-3-methoxy-5-methyl-1-oxoheptan-4-yl)-N,3-dimethylbutanamide] | 1.83 nM |
| CC[C@H](C)[C@@H]([C@@H](CC(=O)N1C[C@@H](O)C[C@H]1[C@H](OC)[C@@H](C)C(=O)NCCc1c(F)cccc1F)OC)N(C)C(=O)[C@@H](NC(=O)[C@@H](NC)C(C)C)C(C)C [Compound I-42, (2S)—N-((3R,4S)-1-((2S,4S)-2-((1R,2R)-3-((2,6-difluorophenethyl)amino)-1-methoxy-2-methyl-3-oxopropyl)-4-hydroxypyrrolidin-1-yl)-3-methoxy-5-methyl-1-oxoheptan-4-yl)-N,3-dimethyl-2-((S)-3-methyl-2-(methylamino)butaneamido)butanamide] | 0.74 nM |

— patent publication US9278996B2, “Dolastatin-10 derivative, method of producing the same and anticancer drug composition containing the same” (CELLTRION, INC., priority 2012, dated 2016)
